One assay addresses T1, CDK2/cyclin A (Homo sapiens, UniProt P24941).
T1 construct: made in house; host or cells: CDK2: insect cells (baculovirus); cyclin A: E. coli
The assay is described as follows: Inhibition of CDK2/cyclin A retinoblastoma kinase activity (Ki; % inhibition). The following applies: for Ki: apparent Ki, CDK2/cyclin A, Rb substrate. Format: biochemical. How it is done: (§1) Cyclin-dependent kinase activity was measured by quantifying the enzyme-catalyzed, time-dependent incorporation of radioactive phosphate from [^32P]ATP or [^33P]ATP into a protein substrate. Unless noted otherwise, assays were performed in 96-well plates in a total volume of 50 μL, in the presence of 10 mM HEPES (N-[2-hydroxyethyl]piperazine-N′-[2-ethanesulfonic acid]) (pH 7.4), 10 mM MgCl2, 25 μM adenosine triphosphate (ATP), 1 mg/mL ovalbumin, 5 μg/mL leupeptin, 1 mM dithiothreitol, 10 mM β-glycerophosphate, 0.1 mM sodium vanadate, 1 mM sodium fluoride, 2.5 mM ethylene glycol-bis(β-aminoethyl ether)-N,N,N′N′-tetraacetic acid (EGTA), 2% (v/v) dimethylsulfoxide, and 0.03-0.4 μCi [^32/33P]ATP per reaction. Reactions were initiated with enzyme, incubated at 30° C., and terminated after 20 minutes by the addition of ethylenediaminetetraacetic acid (EDTA) to 250 mM. The phosphorylated substrate was then captured on a nitrocellulose or phosphocellulose membrane using a 96-well filtration manifold, and unincorporated radioactivity was removed by repeated washing with 0.85% phosphoric acid. Radioactivity was quantified by exposing the dried membranes to a phosphorimager.
(§2) Compounds from combinatorial libraries were screened from 96-well plates for % inhibition of CDK activity at 30 nM theoretical compound concentration. Inhibition was measured relative to control wells that contained all reaction components including 2% (v/v) DMSO but no compound, after subtraction of background radioactivity measured in the absence of enzyme. Apparent Ki values of discrete compounds were measured by assaying enzyme activity in the presence of different inhibitor compound concentrations and subtracting the background radioactivity measured in the absence of enzyme. The kinetic parameters (kcat, Km for ATP) were measured for each enzyme under the usual assay conditions by determining the dependence of initial rates on ATP concentration. Inhibition data were fit to an equation for competitive inhibition using Kaleidagraph (Synergy Software), or were fit to an equation for competitive tight-binding inhibition using the software KineTic (BioKin, Ltd.).
CDK2 was purified using published methodology (Rosenblatt et al., “Purification and Crystallization of Human Cyclin-dependent Kinase 2,” J. Mol. Biol., 230, 1993, pp. 1317-1319) from insect cells that had been infected with a baculovirus expression vector. […] A complex of CDK2 and proteolyzed cyclin A was prepared and purified by gel filtration. The substrate for this assay was the same Rb substrate fragment used for the CDK4 assays, and the methodology of the CDK2/delta cyclin A and the CDK4/delta cyclin D3 assays was essentially the same, except that CDK2 was present at 10 nM or 19 nM. The duration of the assay was 60 or 75 minutes, during which the time-dependence of product formation was linear and initial rate conditions were met.

Another assay concerns the target T2, human CDK4/cyclin D3 (Homo sapiens, UniProt P11802).
T2 construct: made in house; host or cells: insect cells co-infected with baculovirus vectors
Description: Inhibition of CDK4/cyclin D retinoblastoma kinase activity (Ki; % inhibition). It is filed as biochemical. The following applies: for Ki: apparent Ki, CDK4/cyclin D3, Rb substrate. Here is the method:
as §1, §2
A complex of human CDK4 and genetically truncated (1-264) cyclin D3 was purified using traditional biochemical chromatographic techniques from insect cells that had been co-infected with the corresponding baculovirus expression vectors (see e.g., Meijer and Kim, “Chemical Inhibitors of Cyclin-Dependent Kinases,” Methods in Enzymol., 283 (1997), pp. 113-128.). The enzyme complex (5 nM) was assayed with 0.3-0.5 μg of purified recombinant retinoblastoma protein fragment (Rb) as a substrate. The engineered Rb fragment (residues 386-928 of the native retinoblastoma protein; 62.3 kDa) contains the majority of the phosphorylation sites found in the native 106-kDa protein, as well as a tag of six histidine residues for ease of purification. Phosphorylated Rb substrate was captured by microfiltration on a nitrocellulose membrane and quantified using a phosphorimager as described above. For measurement of tight-binding inhibitors, the assay duration was extended to 60 minutes, during which the time-dependence of product formation was linear and initial rate conditions were met.

For the next assay, the system named is HCT-116 cell line. Description: Inhibition of cell growth, MTT tetrazolium salt assay. The following applies: for IC50: Homo sapiens, HCT-116, 120 h, MTT, three to five days. Format: cell-based. How it is done:
Inhibition of cell growth was measured using the tetrazolium salt assay, which is based on the ability of viable cells to reduce 3-(4,5-dimethylthiazol-2-yl)-2,5-[2H]-diphenyltetrazolium bromide (MTT) to formazan (Mossman, Journal of Immunological Methods, 65, (1983), pp. 55-58). The water-insoluble purple formazan product was then detected spectrophotometrically. The HCT-116 cell line was used as a representative cancer cell line and grown in 96-well plates. Cells were plated in McCoy's 5A Medium at a volume of 135 μl/well. Plates were incubated for four hours before addition of inhibitor compounds. Different concentrations of inhibitor compounds were added in 0.5% (v/v) dimethylsulfoxide (15 μL/well), and cells were incubated at 37° C. (5% CO2) for three to five days. At the end of the incubation, MTT was added to a final concentration of 0.2 mg/mL, and cells were incubated for 4 hours more at 37° C. After centrifugation of the plates and removal of medium, the absorbance of the formazan (solubilized in dimethylsulfoxide) was measured at 540 nm. The concentration of inhibitor compound causing 50% (IC50) or 90% ([…]) inhibition of growth was determined from the linear portion of a semi-log plot of inhibitor concentration versus percent inhibition. All results were compared to control cells treated only with 0.5% (v/v) dimethylsulfoxide.

Where [1] appears, read: HCT-116 cells, 0.25 μM compound.

Experimental findings from patent US6720346B2, “Thiazole benzamide derivatives and pharmaceutical compositions for inhibiting cell proliferation” (Agouron Pharmaceuticals, Inc., priority 2001, dated 2004) are described below.

Each structure is given as a SMILES string.

T2 sequence (P11802 whole entry): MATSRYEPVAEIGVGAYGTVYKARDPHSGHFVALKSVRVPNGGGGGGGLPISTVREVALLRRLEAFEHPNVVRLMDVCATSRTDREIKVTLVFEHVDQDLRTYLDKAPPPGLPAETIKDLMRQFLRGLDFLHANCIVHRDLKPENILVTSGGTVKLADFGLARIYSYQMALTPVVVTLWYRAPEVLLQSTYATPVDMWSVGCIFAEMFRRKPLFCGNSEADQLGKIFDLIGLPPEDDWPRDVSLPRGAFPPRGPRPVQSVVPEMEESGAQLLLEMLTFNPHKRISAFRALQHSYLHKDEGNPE
T2 sequence (P30281 1-264 partner limits assumed): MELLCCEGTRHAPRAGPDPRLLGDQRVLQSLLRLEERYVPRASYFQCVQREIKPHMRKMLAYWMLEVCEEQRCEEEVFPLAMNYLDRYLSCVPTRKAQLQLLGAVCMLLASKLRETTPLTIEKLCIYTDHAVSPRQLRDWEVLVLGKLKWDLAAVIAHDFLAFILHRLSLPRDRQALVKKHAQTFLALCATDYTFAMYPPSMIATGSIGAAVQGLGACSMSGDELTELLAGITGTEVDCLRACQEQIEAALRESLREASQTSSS

Consider `COc1ccc(CNC(=O)c2ccc(Nc3nc(N)c(C(=O)c4c(F)cccc4F)s3)cc2)cc1` [Example G169], for which the “CDK2 % Inhibition at 0.03 μM” value at CDK2/cyclin A (at 0.03 μM) is 38%. Also, on human CDK4/cyclin D3 (at 0.03 μM), the “CDK4 % Inhibition at 0.03 μM” value was found to be 49%. Also, the “HCT-116 % Inhibition at 0.1 μM” value in the assay on HCT-116 cell line (HCT-116, at 0.1 μM) was determined as 32%. Also, the “HCT-116 % Inhibition at 0.25 μM” value in the assay on HCT-116 cell line (HCT-116, at 0.25 μM) was found to be 71%.
Regarding `N#CCCN(Cc1ccccc1)C(=O)c1ccc(Nc2nc(N)c(C(=O)c3c(F)cccc3F)s2)cc1` [Example G304], at CDK2/cyclin A (0.03 μM compound), the “CDK2 % Inhibition at 0.03 μM” value turned out to be 0%. Also, at human CDK4/cyclin D3 (0.03 μM compound), the “CDK4 % Inhibition at 0.03 μM” value is 20%. Moreover, in the assay on HCT-116 cell line (HCT-116 cells, 0.1 μM compound), the “HCT-116 % Inhibition at 0.1 μM” value came to 15%. In addition, in the assay on HCT-116 cell line (setting [1]), the “HCT-116 % Inhibition at 0.25 μM” value is recorded as 54%.
Take `CN1CCC[C@H]1CNC(=O)c1ccc(Nc2nc(N)c(C(=O)c3c(F)cccc3Cl)s2)cc1` [Example A71, 4-[4-Amino-5-(2-chloro-6-fluoro-benzoyl)-thiazol-2-ylamino]-N-(1-methyl-pyrrolidin-2S-ylmethyl)-benzamide]: the Ki at CDK2/cyclin A came out at 5.6 nM; at human CDK4/cyclin D3, 82 nM. In addition, the IC50 in the assay with HCT-116 cell line worked out at 34 nM.
As for `Nc1nc(Nc2ccc(C(=O)Nc3ccccc3)cc2)sc1C(=O)c1c(F)cccc1F` [Example G7], the “CDK2 % Inhibition at 0.03 μM” value at CDK2/cyclin A (at 0.03 μM) was found to be 4%. At human CDK4/cyclin D3 (at 0.03 μM), the “CDK4 % Inhibition at 0.03 μM” value was 5%. Also, the “HCT-116 % Inhibition at 0.25 μM” value in the assay with HCT-116 cell line (HCT-116, at 0.25 μM) is listed as 80%.
For `CN(C)CCNC(=O)c1ccc(Nc2nc(N)c(C(=O)c3c(F)cccc3F)s2)cc1` [Example A4], the Ki amounted to 230 nM on CDK2/cyclin A and 16 nM at human CDK4/cyclin D3. Moreover, the IC50 in the assay on HCT-116 cell line came to 190 nM.
Consider `CC(C)NC(=O)c1ccc(Nc2nc(N)c(C(=O)c3c(F)cccc3F)s2)cc1` [Example G96], for which the “CDK2 % Inhibition at 0.03 μM” value on CDK2/cyclin A (at 0.03 μM) was −10%. The “CDK4 % Inhibition at 0.03 μM” value at human CDK4/cyclin D3 (at 0.03 μM) is on record as 5%. Besides, the “HCT-116 % Inhibition at 0.1 μM” value in the assay with HCT-116 cell line (HCT-116, at 0.1 μM) is on record as 20%. The “HCT-116 % Inhibition at 0.25 μM” value with HCT-116 cell line (HCT-116, at 0.25 μM) worked out at 56%.
For the compound `Cc1cccc(CNC(=O)c2ccc(Nc3nc(N)c(C(=O)c4c(F)cccc4F)s3)cc2)c1` [Example G360], the “CDK2 % Inhibition at 0.03 μM” value at CDK2/cyclin A (0.03 μM compound) stood at 31%. The “CDK4 % Inhibition at 0.03 μM” value at human CDK4/cyclin D3 (0.03 μM compound) stood at 9%. Besides, the “HCT-116 % Inhibition at 0.1 μM” value in the assay on HCT-116 cell line (HCT-116 cells, 0.1 μM compound) turned out to be 18%. In the assay on HCT-116 cell line (setting [1]), the “HCT-116 % Inhibition at 0.25 μM” value is listed as 73%.
As for `CNC(=O)C(C)NC(=O)c1ccc(Nc2nc(N)c(C(=O)c3c(F)cccc3F)s2)cc1` (centres unmarked) [Example G192], the “CDK2 % Inhibition at 0.03 μM” value on CDK2/cyclin A (at 0.03 μM) is reported as 8%. Further, the “CDK4 % Inhibition at 0.03 μM” value at human CDK4/cyclin D3 (at 0.03 μM) came out at 23%. For the same compound, the “HCT-116 % Inhibition at 0.1 μM” value in the assay on HCT-116 cell line (HCT-116, at 0.1 μM) stood at 13%. For the same compound, the “HCT-116 % Inhibition at 0.25 μM” value in the assay with HCT-116 cell line (HCT-116, at 0.25 μM) came to 49%.
As to `Nc1nc(Nc2ccc(C(=O)NCCc3cccc(F)c3)cc2)sc1C(=O)c1c(F)cccc1F` [Example G349], the “CDK2 % Inhibition at 0.03 μM” value on CDK2/cyclin A (0.03 μM compound) is −6%. On human CDK4/cyclin D3 (0.03 μM compound), the “CDK4 % Inhibition at 0.03 μM” value is listed as 11%. In addition, the “HCT-116 % Inhibition at 0.1 μM” value in the assay with HCT-116 cell line (HCT-116 cells, 0.1 μM compound) is reported as 31%. The “HCT-116 % Inhibition at 0.25 μM” value with HCT-116 cell line (setting [1]) was determined as 48%.
Regarding `CC(C)C(C)NC(=O)c1ccc(Nc2nc(N)c(C(=O)c3c(F)cccc3F)s2)cc1` (centres unmarked) [Example G89], the “CDK2 % Inhibition at 0.03 μM” value at CDK2/cyclin A (at 0.03 μM) is −20%. Further, on human CDK4/cyclin D3 (at 0.03 μM), the “CDK4 % Inhibition at 0.03 μM” value is −4%. In the assay with HCT-116 cell line (HCT-116, at 0.1 μM), the “HCT-116 % Inhibition at 0.1 μM” value worked out at 30%. In the assay with HCT-116 cell line (HCT-116, at 0.25 μM), the “HCT-116 % Inhibition at 0.25 μM” value was found to be 59%.
For `COc1cc(NC(=O)c2ccc(Nc3nc(N)c(C(=O)c4c(F)cccc4F)s3)cc2)cc(OC)c1` [Example G86], in that order: 10%, 0%, 39% and 73%.
`CN(CCc1ccccn1)C(=O)c1ccc(Nc2nc(N)c(C(=O)c3c(F)cccc3F)s2)cc1` [Example G71]: the “CDK2 % Inhibition at 0.03 μM” value on CDK2/cyclin A (at 0.03 μM) was found to be 3%. For the same compound, the “CDK4 % Inhibition at 0.03 μM” value at human CDK4/cyclin D3 (at 0.03 μM) was 16%. The “HCT-116 % Inhibition at 0.25 μM” value in the assay on HCT-116 cell line (HCT-116, at 0.25 μM) was found to be 59%.
For `Nc1nc(Nc2ccc(C(=O)Nc3ccc4ncccc4c3)cc2)sc1C(=O)c1c(F)cccc1F` [Example G75], at CDK2/cyclin A (at 0.03 μM), the “CDK2 % Inhibition at 0.03 μM” value amounted to 21%. Further, the “CDK4 % Inhibition at 0.03 μM” value at human CDK4/cyclin D3 (at 0.03 μM) is 15%. The “HCT-116 % Inhibition at 0.25 μM” value in the assay on HCT-116 cell line (HCT-116, at 0.25 μM) worked out at 64%.
